Values joined by “and” are separate entries in the source; they are usually repeats but may differ in a detail not shown here. Equal values may be shown once. Toxic doses and inconclusive results are not listed.
Tested on: L1210 leukemia ip in BDF1 mice, survival T/C
Test: NCI In Vivo Anticancer Drug Screen. Data for tumor model L1210 Leukemia (intraperitoneal) in B6D2F1 (BDF1) mice
Conditions: endpoint: mean survival time, higher = longer survival
Outline: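 Transplantable tumor model; survival measured in treated vs vehicle control mice. Value = treated/control.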

[1] = dose: 100.0 mg/kg/injection, schedule: Q01DX001 (ip), vehicle: carboxymethylcellulose (CMC)
[2] = dose: 100.0 mg/kg/injection, schedule: Q01DX001 (ip), vehicle: Klucel (hydroxypropylcellulose) (HPC)
[3] = dose: 200.0 mg/kg/injection, schedule: Q01DX001 (ip), vehicle: Klucel (hydroxypropylcellulose) (HPC)
[4] = dose: 100.0 mg/kg/injection, schedule: Q01DX009 (ip), vehicle: Klucel (hydroxypropylcellulose) (HPC)
[5] = dose: 200.0 mg/kg/injection, schedule: Q01DX009 (ip), vehicle: Klucel (hydroxypropylcellulose) (HPC)
[6] = dose: 400.0 mg/kg/injection, schedule: Q01DX009 (ip), vehicle: Klucel (hydroxypropylcellulose) (HPC)
[7] = dose: 75.0 mg/kg/injection, schedule: Q01DX001 (ip), vehicle: other
[8] = dose: 150.0 mg/kg/injection, schedule: Q01DX001 (ip), vehicle: other
[9] = dose: 300.0 mg/kg/injection, schedule: Q01DX001 (ip), vehicle: other
[10] = dose: 100.0 mg/kg/injection, schedule: Q01DX009 (ip), vehicle: saline with Tween-80
[11] = dose: 50.0 mg/kg/injection, schedule: Q01DX009 (ip), vehicle: saline with Tween-80
[12] = dose: 100.0 mg/kg/injection, schedule: Q04DX003 (ip), vehicle: saline with Tween-80
[13] = dose: 200.0 mg/kg/injection, schedule: Q04DX003 (ip), vehicle: saline with Tween-80
[14] = dose: 100.0 mg/kg/injection, schedule: Q04DX003 (ip), vehicle: Klucel (hydroxypropylcellulose) (HPC)
[15] = dose: 200.0 mg/kg/injection, schedule: Q04DX003 (ip), vehicle: Klucel (hydroxypropylcellulose) (HPC)
[16] = dose: 400.0 mg/kg/injection, schedule: Q04DX003 (ip), vehicle: Klucel (hydroxypropylcellulose) (HPC)
[17] = dose: 200.0 mg/kg/injection, schedule: Q01DX001 (ip), vehicle: carboxymethylcellulose (CMC)
[18] = dose: 15.0 mg/kg/injection, schedule: Q01DX Z (ip), vehicle: carboxymethylcellulose (CMC)
[19] = dose: 30.0 mg/kg/injection, schedule: Q01DX Z (ip), vehicle: carboxymethylcellulose (CMC)

CC1C(C(=O)O)CC([N+](=O)[O-])C(Cl)C1[N+](=O)[O-] (stereo not given)
T/C (dose: 25.0 mg/kg/injection, schedule: Q01DX001 (ip), vehicle: carboxymethylcellulose (CMC)): 92 % of control | T/C (dose: 25.0 mg/kg/injection, schedule: Q04DX003 (ip), vehicle: carboxymethylcellulose (CMC)): 95 % of control | T/C (dose: 50.0 mg/kg/injection, schedule: Q01DX001 (ip), vehicle: carboxymethylcellulose (CMC)): 97 % of control | T/C (dose: 50.0 mg/kg/injection, schedule: Q01DX009 (ip), vehicle: carboxymethylcellulose (CMC)): 95 % of control and 102 % of control | T/C (dose: 50.0 mg/kg/injection, schedule: Q04DX003 (ip), vehicle: carboxymethylcellulose (CMC)): 98 % of control | T/C [1]: 102 % of control | T/C (dose: 100.0 mg/kg/injection, schedule: Q01DX009 (ip), vehicle: carboxymethylcellulose (CMC)): 90 % of control | T/C (dose: 100.0 mg/kg/injection, schedule: Q04DX002 (ip), vehicle: carboxymethylcellulose (CMC)): 101 % of control and 91 % of control | T/C (dose: 100.0 mg/kg/injection, schedule: Q04DX003 (ip), vehicle: carboxymethylcellulose (CMC)): 102 % of control | T/C (dose: 200.0 mg/kg/injection, schedule: Q04DX002 (ip), vehicle: carboxymethylcellulose (CMC)): 92 % of control and 105 % of control

CN1CCC2(CC1)C(=O)N(c1ccccc1)C(=O)C2c1ccccc1 (stereo not given)
T/C [2]: 102 % of control | T/C [3]: 98 % of control

O=S(=O)(O)C(Cl)c1ccccc1 (stereo not given)
T/C (dose: 100.0 mg/kg/injection, schedule: Q04DX002 (ip), vehicle: saline): 105 % of control | T/C (dose: 200.0 mg/kg/injection, schedule: Q04DX002 (ip), vehicle: saline): 102 % of control | T/C (dose: 400.0 mg/kg/injection, schedule: Q04DX002 (ip), vehicle: saline): 98 % of control

CC(C)c1ccc(NCN2C(=O)c3ccccc3C2=O)cc1
T/C [4]: 100 % of control | T/C [5]: 103 % of control | T/C [6]: 101 % of control

Cc1cccc(NC(=S)N2CCOCC2)c1
T/C (dose: 87.5 mg/kg/injection, schedule: Q01DX009 (ip), vehicle: Klucel (hydroxypropylcellulose) (HPC)): 110 % of control | T/C (dose: 175.0 mg/kg/injection, schedule: Q01DX009 (ip), vehicle: Klucel (hydroxypropylcellulose) (HPC)): 100 % of control | T/C (dose: 350.0 mg/kg/injection, schedule: Q01DX009 (ip), vehicle: Klucel (hydroxypropylcellulose) (HPC)): 108 % of control

O=C(O)C12CCC(CCC1O)C2 (stereo not given)
T/C [7]: 102 % of control | T/C [8]: 100 % of control | T/C [9]: 100 % of control

CC1=C2CC(C(C)(C)O)CCC2(C)CC/C1=N\NC(N)=S (stereo not given)
T/C [10]: 98 % of control | T/C (dose: 400.0 mg/kg/injection, schedule: Q01DX009 (ip), vehicle: saline with Tween-80): 86 % of control

OC1(c2cccc3ccccc23)CCCCC1
T/C [11]: 100 % of control | T/C [10]: 94 % of control | T/C [12]: 94 % of control | T/C (dose: 200.0 mg/kg/injection, schedule: Q01DX009 (ip), vehicle: saline with Tween-80): 103 % of control | T/C [13]: 91 % of control

COc1ccc(C(=O)NC(=S)Nc2cccc(C)c2C)cc1
T/C [4]: 102 % of control | T/C [14]: 93 % of control | T/C [5]: 102 % of control | T/C [15]: 89 % of control | T/C [6]: 95 % of control | T/C [16]: 98 % of control

Nc1c(Cl)ncnc1NC1CCC(CO)C1 (stereo not given)
T/C [1]: 103 % of control | T/C [17]: 106 % of control

S=C(Nc1ccc(Br)cc1)NC1CCCCC1
T/C [7]: 88 % of control | T/C [8]: 93 % of control | T/C [9]: 95 % of control

O=C(CC(Cl)(C(F)(F)F)C(F)(F)F)c1cccc([N+](=O)[O-])c1
T/C (dose: 12.5 mg/kg/injection, schedule: Q01DX009 (ip), vehicle: saline with Tween-80): 91 % of control | T/C (dose: 12.5 mg/kg/injection, schedule: Q04DX003 (ip), vehicle: saline with Tween-80): 96 % of control | T/C (dose: 25.0 mg/kg/injection, schedule: Q01DX009 (ip), vehicle: saline with Tween-80): 96 % of control | T/C (dose: 25.0 mg/kg/injection, schedule: Q04DX003 (ip), vehicle: saline with Tween-80): 98 % of control | T/C [11]: 96 % of control | T/C (dose: 50.0 mg/kg/injection, schedule: Q04DX003 (ip), vehicle: saline with Tween-80): 100 % of control

CN(N=O)C(=O)NC(N)=O
T/C (dose: 1.5 mg/kg/injection, schedule: Q01DX009 (ip), vehicle: saline): 110 % of control | T/C (dose: 1.87 mg/kg/injection, schedule: Q01DX Z (ip), vehicle: carboxymethylcellulose (CMC)): 115 % of control | T/C (dose: 10.0 mg/kg/injection, schedule: Q01DX Z (ip), vehicle: carboxymethylcellulose (CMC)): 188 % of control | T/C [18]: 177 % of control | T/C [19]: 110 % of control | T/C (dose: 40.0 mg/kg/injection, schedule: Q01DX Z (ip), vehicle: carboxymethylcellulose (CMC)): 91 % of control | T/C (dose: 50.0 mg/kg/injection, schedule: Q01DX Z (ip), vehicle: saline): 122 % of control | T/C (dose: 75.0 mg/kg/injection, schedule: Q01DX Z (ip), vehicle: saline): 112 % of control | T/C (dose: 100.0 mg/kg/injection, schedule: Q01DX Z (ip), vehicle: saline): 92 % of control

C=CCCCCn1c2ccccc2c2c(C)c3cnccc3c(C)c21
T/C [12]: 91 % of control | T/C [13]: 91 % of control | T/C (dose: 400.0 mg/kg/injection, schedule: Q04DX003 (ip), vehicle: saline with Tween-80): 92 % of control

O=C(O)C(O)C1CCCCC1 (stereo not given)
T/C [1]: 91 % of control | T/C [17]: 104 % of control | T/C (dose: 400.0 mg/kg/injection, schedule: Q01DX001 (ip), vehicle: carboxymethylcellulose (CMC)): 94 % of control

O=C1CCC(=O)N1C1c2ccccc2Oc2ccccc21
T/C (dose: 100.0 mg/kg/injection, schedule: Q04DX003 (ip), vehicle: saline): 95 % of control | T/C (dose: 200.0 mg/kg/injection, schedule: Q04DX003 (ip), vehicle: saline): 95 % of control | T/C (dose: 400.0 mg/kg/injection, schedule: Q04DX003 (ip), vehicle: saline): 90 % of control

NC(N)=N/N=C/c1cccc(OCC(=O)O)c1
T/C [18]: 87 % of control | T/C [19]: 92 % of control | T/C (dose: 60.0 mg/kg/injection, schedule: Q01DX Z (ip), vehicle: carboxymethylcellulose (CMC)): 92 % of control | T/C (dose: 60.0 mg/kg/injection, schedule: Q01DX Z (oral), vehicle: carboxymethylcellulose (CMC)): 100 % of control | T/C (dose: 120.0 mg/kg/injection, schedule: Q01DX Z (ip), vehicle: carboxymethylcellulose (CMC)): 94 % of control | T/C (dose: 120.0 mg/kg/injection, schedule: Q01DX Z (oral), vehicle: carboxymethylcellulose (CMC)): 100 % of control | T/C (dose: 240.0 mg/kg/injection, schedule: Q01DX Z (oral), vehicle: carboxymethylcellulose (CMC)): 94 % of control | T/C (dose: 480.0 mg/kg/injection, schedule: Q01DX Z (oral), vehicle: carboxymethylcellulose (CMC)): 100 % of control

CC(=O)CC(=O)C(F)(F)F.CC(=O)CC(=O)C(F)(F)F.CC(=O)CC(=O)C(F)(F)F.CC(=O)CC(=O)C(F)(F)F.[Th]
T/C (dose: 100.0 mg/kg/injection, schedule: Q01DX005 (ip), vehicle: gum acacia): 90 % of control | T/C (dose: 100.0 mg/kg/injection, schedule: Q04DX002 (ip), vehicle: gum acacia): 96 % of control | T/C (dose: 200.0 mg/kg/injection, schedule: Q01DX005 (ip), vehicle: gum acacia): 93 % of control | T/C (dose: 200.0 mg/kg/injection, schedule: Q01DX009 (ip), vehicle: gum acacia): 101 % of control | T/C (dose: 200.0 mg/kg/injection, schedule: Q04DX002 (ip), vehicle: gum acacia): 96 % of control | T/C (dose: 400.0 mg/kg/injection, schedule: Q01DX005 (ip), vehicle: gum acacia): 90 % of control | T/C (dose: 400.0 mg/kg/injection, schedule: Q01DX009 (ip), vehicle: gum acacia): 94 % of control | T/C (dose: 400.0 mg/kg/injection, schedule: Q04DX002 (ip), vehicle: gum acacia): 107 % of control

COc1ccc(C2C(=O)c3ccccc3C2=O)cc1OC
T/C [2]: 94 % of control | T/C [3]: 88 % of control

CN(C)c1ccc(/C=C2/CCCCC2=O)cc1
T/C [4]: 98 % of control | T/C [14]: 93 % of control | T/C [5]: 109 % of control | T/C [15]: 103 % of control | T/C [6]: 96 % of control | T/C [16]: 103 % of control

Source: PubChem BioAssay AID248 (DTP/NCI, 2004)
